Measurements from article PMC6820543, “Pig liver esterases PLE1 and PLE6: heterologous expression, hydrolysis of common antibiotics and pharmacological consequences” (Scientific Reports, 2019).
Values belong to the molecule of their own block, whether it stands above or below them.

Key:
[1] = test system: T1, PLE6 (pig liver esterase 6); assay: LC-MS/MS product quantification, Lineweaver-Burk; type: biochemical, Sus scrofa; details: Tris-HCl 50 mM pH 7.4, 37 °C, 12.5-800 µM substrate
T1 construct: recombinant from pET-15b in E. coli Origami (DE3) with chaperone pGro7, His-tag column; cDNA 1698 bp, 566 residues with 18-residue signal peptide, about 60 kDa

[2] = substrate: CC1(C)S[C@@H]2[C@H](NC(=O)[C@H](N)c3ccccc3)C(=O)N2[C@H]1C(=O)O; assay: LC-MS/MS product quantification, Lineweaver-Burk; type: biochemical, Sus scrofa; details: Tris-HCl 50 mM pH 7.4, 37 °C, 12.5-800 µM substrate, beta-lactam amide hydrolysis to aminobenzyl-penicilloic acid
purified protein = substrate: CC1(C)S[C@@H]2[C@H](NC(=O)[C@H](N)c3ccc(O)cc3)C(=O)N2[C@H]1C(=O)O; assay: purified protein; details: Tris-HCl 50 mM pH 7.4, 37 °C, 12.5-800 µM substrate, beta-lactam amide hydrolysis to amoxicilloic acid

Km ([1]; beta-lactam amide hydrolysis to amoxicilloic acid): 36.7 µM
Molecule: CC1(C)S[C@@H]2[C@H](NC(=O)[C@H](N)c3ccc(O)cc3)C(=O)N2[C@H]1C(=O)O [amoxicillin]

Km ([1]; beta-lactam amide hydrolysis to aminobenzyl-penicilloic acid): 64.2 µM
Molecule: CC1(C)S[C@@H]2[C@H](NC(=O)[C@H](N)c3ccccc3)C(=O)N2[C@H]1C(=O)O [ampicillin]

B1: PLE1 (pig liver esterase 1) (Sus scrofa) (protein)
chain: GQPASPPVVDTAQGRVLGKYVSLEGLAQPVAVFLGVPFAKPPLGSLRFAPPQPAEPWSFVKNTTSYPPMCCQDPVVEQMTSDLFTNGKERLTLEFSEDCLYLNIYTPADLTKRGRLPVMVWIHGGGLVLGGAPMYDGVVLAAHENVVVVAIQYRLGIWGFFSTGDEHSRGNWGHLDQVAALHWVQENIANFGGDPGSVTIFGESAGGESVSVLVLSPLAKNLFHRAISESGVALTVALVRKDMKAAAKQIAVLAGCKTTTSAVFVHCLRQKSEDELLDLTLKMKFLTLDFHGDQRESHPFLPTVVDGVLLPKMPEEILAEKDFNTVPYIVGINKQEFGWLLPTMMGFPLSEGKLDQKTATSLLWKSYPIANIPEELTPVATDKYLGGTDDPVKKKDLFLDLMGDVMFGVPSVTVARQHRDAGAPTYMYEFQYRPSFSSDKKPKTVIGDHGDEIFSVFGFPLLKGDAPEEEVSLSKMVMKFWANFARSGNPNGEGLPHWPMYDQEEGYLQIGVNTQAAKRLKGEEVAFWNDLLSKEAAKKPPKIKHAEL
notes: recombinant from pET-15b in E. coli Origami (DE3) with chaperone pGro7, His-tag column; cDNA 1698 bp, 566 residues with 18-residue signal peptide, about 60 kDa
Km [2]: 89.20 µM
Km (purified protein): 62.04 µM
